Data reported in PubChem BioAssay AID1919004 (Molecular Pharmacology Branch, DTP, NCI, 2023).

Test system: 883617-216-R-J1-PDC complex spheroids, growth, % test/control
Assay: Anticancer human tumor 883617-216-R-J1-PDC patient-derived bladder carcinoma cell line growth inhibition [AhR]
Settings: for IC50: curve of first compound; for viability, T/C: stronger effect = lower value
How it was run: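 Spheroids combined tumor cells with HUVEC endothelial cells and human MSCs as stroma. AhR antagonists were paired with standard or investigational drugs, each dosed in half-log steps down from near clinical Cmax, or from 10 microM where Cmax was unknown.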

[1] = second compound 0.1 µM, first compound 0.000949 µM
[2] = second compound 0.1 µM, first compound 0.003 µM
[3] = second compound 0.1 µM, first compound 0.00949 µM
[4] = second compound 0.1 µM, first compound 0.03 µM
[5] = second compound 0.1 µM, first compound 0.0949 µM
[6] = second compound 0.1 µM, first compound 0.3 µM
[7] = second compound 0.316 µM, first compound 0.000949 µM
[8] = second compound 0.316 µM, first compound 0.003 µM
[9] = second compound 0.316 µM, first compound 0.00949 µM
[10] = second compound 0.316 µM, first compound 0.03 µM
[11] = second compound 0.316 µM, first compound 0.0949 µM
[12] = second compound 0.316 µM, first compound 0.3 µM
[13] = second compound 1 µM, first compound 0.000949 µM
[14] = second compound 1 µM, first compound 0.003 µM
[15] = second compound 1 µM, first compound 0.00949 µM
[16] = second compound 1 µM, first compound 0.03 µM
[17] = second compound 1 µM, first compound 0.0949 µM
[18] = second compound 1 µM, first compound 0.3 µM
[19] = second compound 3.16 µM, first compound 0.000949 µM
[20] = second compound 3.16 µM, first compound 0.003 µM
[21] = second compound 3.16 µM, first compound 0.00949 µM
[22] = second compound 3.16 µM, first compound 0.03 µM
[23] = second compound 3.16 µM, first compound 0.0949 µM
[24] = second compound 3.16 µM, first compound 0.3 µM
[25] = second compound 10 µM, first compound 0.000949 µM
[26] = second compound 10 µM, first compound 0.003 µM
[27] = second compound 10 µM, first compound 0.00949 µM
[28] = second compound 10 µM, first compound 0.03 µM
[29] = second compound 10 µM, first compound 0.0949 µM
[30] = second compound 10 µM, first compound 0.3 µM
[31] = second compound 0.1 µM, first compound 0.0316 µM
[32] = second compound 0.1 µM, first compound 0.1 µM
[33] = second compound 0.1 µM, first compound 0.316 µM
[34] = second compound 0.1 µM, first compound 1 µM
[35] = second compound 0.1 µM, first compound 3.16 µM
[36] = second compound 0.1 µM, first compound 10 µM
[37] = second compound 0.316 µM, first compound 0.0316 µM
[38] = second compound 0.316 µM, first compound 0.1 µM
[39] = second compound 0.316 µM, first compound 0.316 µM
[40] = second compound 0.316 µM, first compound 1 µM
[41] = second compound 0.316 µM, first compound 3.16 µM
[42] = second compound 0.316 µM, first compound 10 µM
[43] = second compound 1 µM, first compound 0.0316 µM
[44] = second compound 1 µM, first compound 0.1 µM
[45] = second compound 1 µM, first compound 0.316 µM
[46] = second compound 1 µM, first compound 1 µM
[47] = second compound 1 µM, first compound 3.16 µM
[48] = second compound 1 µM, first compound 10 µM
[49] = second compound 3.16 µM, first compound 0.0316 µM
[50] = second compound 3.16 µM, first compound 0.1 µM
[51] = second compound 3.16 µM, first compound 0.316 µM
[52] = second compound 3.16 µM, first compound 1 µM
[53] = second compound 3.16 µM, first compound 3.16 µM
[54] = second compound 3.16 µM, first compound 10 µM
[55] = second compound 10 µM, first compound 0.0316 µM
[56] = second compound 10 µM, first compound 0.1 µM
[57] = second compound 10 µM, first compound 0.316 µM
[58] = second compound 10 µM, first compound 1 µM
[59] = second compound 10 µM, first compound 3.16 µM
[60] = second compound 10 µM, first compound 10 µM
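Also: exposure lasted 7 days after dosing on day 3 of spheroid growth.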

`CC(C)CC(NC(=O)C(Cc1ccccc1)NC(=O)c1cnccn1)B(O)O` (stereo not given) + CC(CO)NC(=O)c1cc(-c2ccc(Cl)cc2)nn(-c2cnn(C)c2)c1=O was tested, and the IC50 (second compound 0.1 µM) was 1.86 nM, the IC50 (second compound 0.316 µM) was 2.2 nM and the IC50 (second compound 1 µM) was 2.21 nM. It also gave an IC50 (second compound 3.16 µM) of 1.59 nM, an IC50 (second compound 10 µM) of 1.99 nM and a viability, T/C [1] of 106%. For the same molecule, the viability, T/C [2] was 10.4%, the viability, T/C [3] was 2.11% and the viability, T/C [4] was 2.02%. The viability, T/C [5] was 1.92%, the viability, T/C [6] was 3.28% and the viability, T/C [7] was 123%. For the same molecule, the viability, T/C [8] was 22.9%, the viability, T/C [9] was 2.66% and the viability, T/C [10] was 3.45%. The viability, T/C [11] was 3.14%, the viability, T/C [12] was 2.44% and the viability, T/C [13] was 123%. It also gave a viability, T/C [14] of 23.5%, a viability, T/C [15] of 1.76% and a viability, T/C [16] of 2.42%. The viability, T/C [17] was 1.86%, the viability, T/C [18] was 3.98% and the viability, T/C [19] was 80.2%. It also gave a viability, T/C [20] of 13.3%, a viability, T/C [21] of 3.01% and a viability, T/C [22] of 2.25%. The viability, T/C [23] was 2.47%, the viability, T/C [24] was 1.67% and the viability, T/C [25] was 122%. It also gave a viability, T/C [26] of 10.3%, a viability, T/C [27] of 1.69% and a viability, T/C [28] of 2.43%. It also gave a viability, T/C [29] of 2.25% and a viability, T/C [30] of 1.87%.
In the case of `CCc1c2c(nc3ccc(O)cc13)-c1cc3c(c(=O)n1C2)COC(=O)[C@]3(O)CC` + CC(CO)NC(=O)c1cc(-c2ccc(Cl)cc2)nn(-c2cnn(C)c2)c1=O, the IC50 (second compound 0.1 µM) is reported as > 300 nM, the IC50 (second compound 0.316 µM) is reported as > 300 nM and the IC50 (second compound 1 µM) is reported as > 300 nM. The IC50 (second compound 3.16 µM) was > 300 nM, the IC50 (second compound 10 µM) was 300 nM and the viability, T/C [1] was 50.4%. For the same molecule, the viability, T/C [2] was 64.7%, the viability, T/C [3] was 66.9% and the viability, T/C [4] was 39.6%. The viability, T/C [5] was 85.5%, the viability, T/C [6] was 86% and the viability, T/C [7] was 68.2%. It also gave a viability, T/C [8] of 63.3%, a viability, T/C [9] of 87.4% and a viability, T/C [10] of 47.8%. The viability, T/C [11] was 69.9%, the viability, T/C [12] was 80.7% and the viability, T/C [13] was 83.1%. It also gave a viability, T/C [14] of 88.2%, a viability, T/C [15] of 145% and a viability, T/C [16] of 64.1%. It also gave a viability, T/C [17] of 89.4%, a viability, T/C [18] of 63.9% and a viability, T/C [19] of 110%. For the same molecule, the viability, T/C [20] was 63.3%, the viability, T/C [21] was 40.5% and the viability, T/C [22] was 77.9%. For the same molecule, the viability, T/C [23] was 92.7%, the viability, T/C [24] was 73.8% and the viability, T/C [25] was 73.2%. It also gave a viability, T/C [26] of 61.7%, a viability, T/C [27] of 103% and a viability, T/C [28] of 87.3%. For the same molecule, the viability, T/C [29] was 43.6% and the viability, T/C [30] was 57.4%.
With `Nc1ccccc1NC(=O)c1ccc(CNC(=O)OCc2cccnc2)cc1` + CC(CO)NC(=O)c1cc(-c2ccc(Cl)cc2)nn(-c2cnn(C)c2)c1=O the IC50 (second compound 0.1 µM) was 2920 nM, the IC50 (second compound 0.316 µM) was 4730 nM and the IC50 (second compound 1 µM) was 3320 nM. The IC50 (second compound 3.16 µM) was 4380 nM, the IC50 (second compound 10 µM) was 3900 nM and the viability, T/C [31] was 79.3%. It also gave a viability, T/C [32] of 101%, a viability, T/C [33] of 90.8% and a viability, T/C [34] of 78.8%. It also gave a viability, T/C [35] of 48.2%, a viability, T/C [36] of 20.5% and a viability, T/C [37] of 76.8%. For the same molecule, the viability, T/C [38] was 86.9%, the viability, T/C [39] was 113% and the viability, T/C [40] was 83%. It also gave a viability, T/C [41] of 68.3%, a viability, T/C [42] of 16.8% and a viability, T/C [43] of 92.8%. The viability, T/C [44] was 87.2%, the viability, T/C [45] was 110% and the viability, T/C [46] was 97.5%. It also gave a viability, T/C [47] of 51.4%, a viability, T/C [48] of 18.7% and a viability, T/C [49] of 73.6%. For the same molecule, the viability, T/C [50] was 66.8%, the viability, T/C [51] was 88% and the viability, T/C [52] was 105%. The viability, T/C [53] was 61.2%, the viability, T/C [54] was 21.8% and the viability, T/C [55] was 110%. For the same molecule, the viability, T/C [56] was 114%, the viability, T/C [57] was 104% and the viability, T/C [58] was 84.1%. It also gave a viability, T/C [59] of 61.1% and a viability, T/C [60] of 8.65%.
`O=C(c1cc(Cc2n[nH]c(=O)c3ccccc23)ccc1F)N1CCN(C(=O)C2CC2)CC1` + CC(CO)NC(=O)c1cc(-c2ccc(Cl)cc2)nn(-c2cnn(C)c2)c1=O was tested, and the IC50 (second compound 0.1 µM) was > 10000 nM, the IC50 (second compound 0.316 µM) was > 10000 nM and the IC50 (second compound 1 µM) was > 10000 nM. For the same molecule, the IC50 (second compound 3.16 µM) was > 10000 nM, the IC50 (second compound 10 µM) was > 10000 nM and the viability, T/C [31] was 107%. It also gave a viability, T/C [32] of 109%, a viability, T/C [33] of 78.8% and a viability, T/C [34] of 124%. For the same molecule, the viability, T/C [35] was 118%, the viability, T/C [36] was 80.2% and the viability, T/C [37] was 80%. It also gave a viability, T/C [38] of 114%, a viability, T/C [39] of 115% and a viability, T/C [40] of 92.3%. The viability, T/C [41] was 72.4%, the viability, T/C [42] was 87.1% and the viability, T/C [43] was 122%. For the same molecule, the viability, T/C [44] was 124%, the viability, T/C [45] was 111% and the viability, T/C [46] was 104%. For the same molecule, the viability, T/C [47] was 137%, the viability, T/C [48] was 97% and the viability, T/C [49] was 120%. The viability, T/C [50] was 88.5%, the viability, T/C [51] was 85.5% and the viability, T/C [52] was 105%. The viability, T/C [53] was 119%, the viability, T/C [54] was 82.3% and the viability, T/C [55] was 126%. The viability, T/C [56] was 84.7%, the viability, T/C [57] was 128% and the viability, T/C [58] was 98.9%. The viability, T/C [59] was 64.2% and the viability, T/C [60] was 104%.
